In patent US9688760B2, “Anti-leukocyte adhesion for the mitigation of potential adverse events caused by CD3-specific binding domains” (AMGEN RESEARCH (MUNICH) GMBH, priority 2013, dated 2017):

Legend:
[1] = cited from earlier work
[2] = test system: HUVEC; experiment: In vitro flow chamber: T cell-rolling and adhesion on HUVEC, long-term conditions; type: cell-based, human; conditions: non-stimulated HUVEC, 40 min
Procedure: (§1) Human brain microvascular endothelial cells (HBMEC) (#1000, Sciencell Research Laboratories) or human umbilical vein endothelial cells (HUVEC) (#C-12200, Promocell) were used as endothelial cell-model. Cryopreserved HBMEC at passage 1 (>5×10^5 cells/ml) were first cultivated in fibronectin-coated Nunclon-treated 75 cm^2 cell culture flasks (#156499, Nunc) at 37° C. and 5% CO2 in a Heraeus Cytoperm 2 (Thermo Scientific) according to the manufacturer's instructions. Sub-cultivation of HBMEC was done with the Detach Kit (#C-41200, Promocell) consisting of HEPES-buffered balanced salt solution (#C-40000, Promocell), trypsin-EDTA solution (0.04%/0.03%) (#C-41000, Promocell) and trypsin neutralization solution (TNS, #C-41100, Promocell). Briefly, the medium was aspirated from the HBMEC-layer and cells were washed with 2 ml of HEPES-buffered balanced salt solution. Addition of 2 ml of trypsin-EDTA solution for 1-5 min at room temperature led to detachment of HBMEC from the flask bottom. Inactivation of trypsin-EDTA solution was performed by addition of 2 ml of trypsin neutralization solution to the cell suspension. Cells were centrifuged at 300 g for 4 min in a Heraeus Megafuge 40 (Thermo Scientific) and seeded at a cell density of 5×10^5 cells per gelatin-coated 75 cm^2 cell culture flask (#L7230, Biochrom). HBMEC for rolling and adhesion experiments were cultivated in RPMI 1640 medium (#FG1215, Biochrom) supplemented with Nu-Serum IV (10%) (#355505, BD Biosciences), dialyzed FBS (10%) (#SZ0115, Biochrom), MEM-vitamins (1%) (#K0373, Biochrom), L-glutamine (1%) (#K0283, Biochrom), sodium-pyruvate (1%) (#L0473, Biochrom), heparin (10 U/ml) (#L6510, Biochrom), and […] cell growth factor ECGS (30 μg/ml) (#02-102, Millipore). Cultivation of HUVEC was done in endothelial cell growth medium (#C-22010, Promocell) supplemented with dialyzed FBS (10%) (#SZ0115, Biochrom) using gelatin-coated 75 cm^2 cell culture flasks. Sub-cultivation of HUVEC was performed with the Detach Kit ([…], Promocell) and cells were seeded at a cell density of 4.0-7.5×10^5 cells per 75 cm^2 cell culture flask.
Isolation of human PBMC from blood was performed by modified density gradient centrifugation as described elsewhere. Briefly, 15-20 ml of freshly drawn heparinized blood was transferred in Biocoll (#L6115, Biochrom)-containing Leukosep tubes (#227290, Greiner bio-one) and centrifuged in a Hettich Rotanta 460 RS Type 5606 (Hettich Laborapparate) at 1066 g for 15 min. After removal of the plasma fraction the PBMC containing phase was transferred in a new tube and washed twice with FACS-buffer (D-PBS #L1820, 5% FBS #SO115, Biochrom). Erythrocyte lysis was performed with lysis buffer (8.29 g/l NH4Cl, 1.00 g/l KHCO3, 0.037 g/l EDTA) for 5 min at room temperature. […]

[3] = test system: stroke patients; conditions: iv, for several days; equivalent to 700 mg per os; cited from earlier work
[4] = test system: HBMEC; experiment: In vitro flow chamber: T cell-rolling on HBMEC, long-term conditions; type: cell-based, human
Procedure: as §1
Isolation of human PBMC from blood was performed by modified density gradient centrifugation as described elsewhere. Briefly, 15-20 ml of freshly drawn heparinized blood was transferred in Biocoll (#L6115, Biochrom)-containing Leukosep tubes (#227290, Greiner bio-one) and centrifuged in a Hettich Rotanta 460 RS Type 5606 (Hettich Laborapparate) at 1066 g for 15 min. After removal of the plasma fraction the PBMC containing phase was transferred in a new tube and washed twice with FACS-buffer (D-PBS #L1820, 5% FBS #SO115, Biochrom). Erythrocyte lysis was performed with lysis buffer (8.29 g/l NH4Cl, 1.00 g/l KHCO3, 0.037 g/l EDTA) for 5 min at room temperature. For subsequent purification of untouched T cells the human Pan T cell-isolation Kit II (#130-091-156, Miltenyi Biotec) was used according to the manufacturer's instructions.
The ibidi Pump System (#10902, ibidi) was used for cultivation of endothelial cells under flow conditions as well as for performing adhesion and rolling assays of human T cells on endothelial cells. The system consists of the ibidi Pump (#10905, ibidi) and the ibidi Fluidic Unit (#10903, ibidi) which work together to generate a unidirectional flow of medium in an attached slide with a defined channel height. The system is controlled by the ibidi Pump Control software (#10908, notebook+software, ibidi). For cultivation of HBMEC or HUVEC under flow conditions, HBMEC or HUVEC were seeded at a cell density of 2.5×10^6 cells/ml into μ-slide I^0.4 Luer Collagen IV (#80172, ibidi) or μ-slide I^0.4 Luer ibiTreat (#80176, ibidi), respectively according to the manufacturer's instructions and cultivated with a perfusion set “yellow/green” (#10964, ibidi) for 48 h under wall shear stress of 5 or 10 dyn/cm^2, respectively. […]

[5] = pH 6; cited from earlier work
[6] = test system: patients; experiment: Phase 1 clinical study: Blinatumomab with PPS co-medication; type: in vivo, human
Procedure: In a phase 1 clinical study three patients were treated with Blinatumomab at an initial dose of 5 μg/m^2/day for 1 week followed by a dose escalation to 60 μg/m^2/day for additional 3 to 7 weeks.

Compound: CN(C)c1ccc(O)c2c1C[C@H]1C[C@H]3[C@H](N(C)C)C(O)=C(C(N)=O)C(=O)[C@@]3(O)C(O)=C1C2=O [minocycline, Minocycline]
- bioavailability ([1]; after oral administration): ~100%
- in vivo half-life ([1]; in vivo): approximately 24 hours
- mean T cell-rolling velocity±SD ([2]; +AMG 103 10 ng/ml, T cells pre-incubated with 50 μg/ml minocycline): 217±92 μm/sec
- mean T cell-rolling velocity±SD ([2]; −AMG 103, +minocycline 50 μg/ml): 233±29 μm/sec
- daily doses found to be safe and well-tolerated [3]: up to 10 mg/kg

Compound: natalizumab: antibody approved for the treatment of multiple sclerosis; binds to VLA-4 on T cells [reference compound]
- mean T cell-rolling velocity±SD ([4]; non-stimulated HBMEC, +AMG 103 10 ng/ml, T cells pre-incubated with 1 μg/ml natalizumab, 40 min): 444±110 μm/sec
- mean T cell-rolling velocity±SD ([4]; non-stimulated HBMEC, −AMG 103, +natalizumab 1 μg/ml, 40 min): 445±81 μm/sec

Compound: β1→4-D-Xylan-2,3-bis(hydrogen sulfate) [PPS, reference compound]
- solubility in water [5]: 50%
- mean T cell-rolling velocity±SD ([4]; histamine-stimulated HBMEC, +AMG 103 10 ng/ml, +PPS 200 μg/ml, 45 min): 483±157 μm/sec
- mean T cell-rolling velocity±SD ([4]; histamine-stimulated HBMEC, −AMG 103, +PPS 200 μg/ml, 45 min): 442±156 μm/sec
- mean T cell-rolling velocity±SD ([4]; non-stimulated HBMEC, +AMG 103 10 ng/ml, +PPS 200 μg/ml, 40 min): 465±116 μm/sec
- mean T cell-rolling velocity±SD ([4]; non-stimulated HBMEC, −AMG 103, +PPS 200 μg/ml, 40 min): 514±159 μm/sec
- T cell-counts in peripheral blood vs baseline, 45 minutes after start of infusion or stepwise dose increase ([6]; all three patients with PPS co-medication): no decline of T cell-counts
- T cell-redistribution kinetics ([6]; all three patients with intravenous PPS, absence of CD19-positive target cells): delayed T cell-redistribution kinetics
- earliest detection of decreased T cell-counts in peripheral blood after start of infusion or stepwise dose increase of Blinatumomab ([6]; intervention with intravenous PPS): ≥ 2 h
- discontinuation of Blinatumomab treatment due to neurological adverse effects ([6]; three patients with intravenous PPS at start of infusion and dose step, high risk (low B:T cell-ratios)): none of these three patients had to discontinue treatment
